Results: patent US7456183B2, “Guanidino compounds” (Novartis Vaccines and Diagnostics, Inc., priority 2001, dated 2008)

Molecular target: MC4-R (Homo sapiens, UniProt P32245)
Assay: cAMP Scintillation Proximity Assay in cells expressing MC4-R
Type: cell-based
Details: intercellular cAMP measured with SPA kit, read-out: in vitro potency (as measured by EC50 value)
Experimental: EC50 values of test compounds were determined by treating cells expressing MC4-R with test compound and lysing the cells and measuring intercellular cAMP concentration with an Amersham-Pharmacia RPA-559 cAMP Scintillation Proximity Assay (SPA) kit. The following compounds were synthesized and tested according to this assay. The following compounds are merely illustrative and should not be construed as limiting of the instant invention.

Sequence of MC4-R (P32245 whole entry, species assumed): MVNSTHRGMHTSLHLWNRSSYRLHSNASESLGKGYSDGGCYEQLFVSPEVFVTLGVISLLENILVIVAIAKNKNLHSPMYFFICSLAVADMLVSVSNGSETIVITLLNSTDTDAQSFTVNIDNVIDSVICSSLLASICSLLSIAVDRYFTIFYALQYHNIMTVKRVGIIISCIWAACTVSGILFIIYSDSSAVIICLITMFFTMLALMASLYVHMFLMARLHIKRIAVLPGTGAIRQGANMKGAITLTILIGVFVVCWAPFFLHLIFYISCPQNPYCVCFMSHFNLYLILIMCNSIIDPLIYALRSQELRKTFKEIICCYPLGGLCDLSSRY

C[C@@H]1[C@@H](N=C(Nc2ccc3c(c2)CCN(CCc2ccc(Cl)cc2Cl)C3=O)N2CCN[C@@H](C)C2)C[C@H]2C[C@@H]1C2(C)C [Example 22, (3S)—N-{2-[2-(2,4-dichlorophenyl)ethyl]-1-oxo-1,2,3,4-tetrahydroisoquinolin-6-yl}-3-methyl-N′-[(1S,2S,5R)-2,6,6-trimethylbicyclo[3.1.1]hept-3-yl]piperazine-1-carboximidamide]
EC50: < 3 µM
